Assay results: patent US8772287B2, “Pyrimidinyl and 1,3,5-triazinyl benzimidazole sulfonamides and their use in cancer therapy” (VetDC, Inc., priority 2009, dated 2014)
Read-outs that look alike come from different tables or passages of the source.

How the values were obtained:
p110β/p85 = p110β/p85 (Homo sapiens, UniProt P42338); test: Inhibition of isolated enzyme p110β/p85 (lipid kinase, [γ-33P]ATP, TLC); type: biochemical; conditions: recombinant enzyme, 100 μM ATP, nine concentrations, average of two experiments
Sequence of p110β/p85 (P42338 whole entry, species assumed): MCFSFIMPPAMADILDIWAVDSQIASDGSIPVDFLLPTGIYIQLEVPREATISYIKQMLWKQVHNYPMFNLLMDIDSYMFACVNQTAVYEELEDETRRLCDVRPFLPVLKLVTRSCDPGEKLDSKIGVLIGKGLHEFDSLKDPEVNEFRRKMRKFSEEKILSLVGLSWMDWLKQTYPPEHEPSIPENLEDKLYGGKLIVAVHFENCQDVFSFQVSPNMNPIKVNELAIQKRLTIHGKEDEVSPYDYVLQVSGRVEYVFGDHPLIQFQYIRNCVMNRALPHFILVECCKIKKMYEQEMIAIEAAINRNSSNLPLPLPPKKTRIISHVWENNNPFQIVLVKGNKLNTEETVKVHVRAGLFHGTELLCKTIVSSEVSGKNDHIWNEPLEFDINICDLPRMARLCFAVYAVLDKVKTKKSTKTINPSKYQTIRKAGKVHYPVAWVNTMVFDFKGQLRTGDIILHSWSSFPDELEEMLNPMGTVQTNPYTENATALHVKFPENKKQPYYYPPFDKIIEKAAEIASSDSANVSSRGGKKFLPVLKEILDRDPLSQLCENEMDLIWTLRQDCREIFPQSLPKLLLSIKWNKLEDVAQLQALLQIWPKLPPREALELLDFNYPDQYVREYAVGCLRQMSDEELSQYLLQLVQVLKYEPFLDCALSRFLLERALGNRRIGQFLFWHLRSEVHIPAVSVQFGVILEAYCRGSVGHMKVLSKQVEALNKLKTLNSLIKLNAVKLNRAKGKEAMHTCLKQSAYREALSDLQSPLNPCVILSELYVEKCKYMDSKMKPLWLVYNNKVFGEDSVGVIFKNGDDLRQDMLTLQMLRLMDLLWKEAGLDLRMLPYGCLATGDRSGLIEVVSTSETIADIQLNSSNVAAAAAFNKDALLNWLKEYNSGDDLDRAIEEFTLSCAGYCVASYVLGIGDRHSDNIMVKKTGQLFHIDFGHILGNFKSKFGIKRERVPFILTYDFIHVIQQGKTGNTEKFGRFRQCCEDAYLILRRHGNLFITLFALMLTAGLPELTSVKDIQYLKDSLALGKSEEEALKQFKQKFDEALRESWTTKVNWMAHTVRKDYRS
Sequence of p110β/p85 (P27986 whole entry partner, species assumed): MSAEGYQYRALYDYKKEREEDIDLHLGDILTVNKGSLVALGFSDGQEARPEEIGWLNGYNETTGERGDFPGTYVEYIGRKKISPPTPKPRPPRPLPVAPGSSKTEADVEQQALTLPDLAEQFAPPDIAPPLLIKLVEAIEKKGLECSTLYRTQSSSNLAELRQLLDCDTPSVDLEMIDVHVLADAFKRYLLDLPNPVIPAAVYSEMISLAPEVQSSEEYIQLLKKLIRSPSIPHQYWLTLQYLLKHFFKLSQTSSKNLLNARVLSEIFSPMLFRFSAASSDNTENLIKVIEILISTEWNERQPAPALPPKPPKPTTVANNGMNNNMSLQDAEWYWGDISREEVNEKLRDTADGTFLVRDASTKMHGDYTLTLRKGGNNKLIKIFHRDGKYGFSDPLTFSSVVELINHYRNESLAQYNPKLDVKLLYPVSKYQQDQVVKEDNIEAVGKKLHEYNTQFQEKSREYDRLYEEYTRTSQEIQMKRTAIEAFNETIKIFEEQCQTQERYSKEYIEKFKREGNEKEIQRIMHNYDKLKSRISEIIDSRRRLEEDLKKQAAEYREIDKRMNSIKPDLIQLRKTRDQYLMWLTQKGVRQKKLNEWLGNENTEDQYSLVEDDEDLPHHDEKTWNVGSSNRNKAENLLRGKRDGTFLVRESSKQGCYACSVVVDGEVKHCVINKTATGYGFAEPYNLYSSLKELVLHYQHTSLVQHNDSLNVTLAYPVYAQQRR
Description: (§1) Compounds were evaluated for their ability to inhibit Class I PI 3-kinase enzymes p110δ/p85, p110α/p85, and p110β/p85. Reaction mixtures comprising 0.1 μg of a recombinant enzyme, 10 μg of L-α-phosphatidylinositol, and 2× Lipid Kinase Buffer (40 mM Tris-HCl, pH 7.4, 200 mM NaCl, 1 mM EDTA), which contains either DMSO only as a control or the test compound in DMSO (the final DMSO concentration is 1%), were activated by the addition of an ATP mix (5 mM MgCl2, 100 μM ATP, and 0.1 μL [γ^33P]ATP). Reactions were incubated at room temperature for 1 hr, and then stopped by the addition of 1M HCl. The lipids were then extracted using a two step procedure. Firstly, 200 μL of chloroform/methanol (1:1) was added, the biphasic reactions mixed and centrifuged briefly, and the inorganic phase was removed and discarded. Following this, 80 μL of methanol:HCl (1:1) was added and the same procedure followed. The organic phase (70 μL) was then transferred to a clean 1.6 mL tube and the reactions were dried using a Speedvac, with no heating, for 30 min. The reactions were spotted onto TLC plates (Merck Ltd) and developed for 1 hr in propanol-1:2 M acetic acid (13:7). The TLC plates were then dried at room temperature and quantified using a phosphorimager (StormImager, Amersham). Nine compound concentrations were used for each test compound to determine its IC50 value. Each experiment was performed twice and the average IC50 value is used herein.

p110α/p85 = p110α/p85 (Homo sapiens, UniProt P42336); test: Inhibition of isolated enzyme p110α/p85 (lipid kinase, [γ-33P]ATP, TLC); type: biochemical; conditions: recombinant enzyme, 100 μM ATP, nine concentrations, average of two experiments
Sequence of p110α/p85 (P42336 whole entry): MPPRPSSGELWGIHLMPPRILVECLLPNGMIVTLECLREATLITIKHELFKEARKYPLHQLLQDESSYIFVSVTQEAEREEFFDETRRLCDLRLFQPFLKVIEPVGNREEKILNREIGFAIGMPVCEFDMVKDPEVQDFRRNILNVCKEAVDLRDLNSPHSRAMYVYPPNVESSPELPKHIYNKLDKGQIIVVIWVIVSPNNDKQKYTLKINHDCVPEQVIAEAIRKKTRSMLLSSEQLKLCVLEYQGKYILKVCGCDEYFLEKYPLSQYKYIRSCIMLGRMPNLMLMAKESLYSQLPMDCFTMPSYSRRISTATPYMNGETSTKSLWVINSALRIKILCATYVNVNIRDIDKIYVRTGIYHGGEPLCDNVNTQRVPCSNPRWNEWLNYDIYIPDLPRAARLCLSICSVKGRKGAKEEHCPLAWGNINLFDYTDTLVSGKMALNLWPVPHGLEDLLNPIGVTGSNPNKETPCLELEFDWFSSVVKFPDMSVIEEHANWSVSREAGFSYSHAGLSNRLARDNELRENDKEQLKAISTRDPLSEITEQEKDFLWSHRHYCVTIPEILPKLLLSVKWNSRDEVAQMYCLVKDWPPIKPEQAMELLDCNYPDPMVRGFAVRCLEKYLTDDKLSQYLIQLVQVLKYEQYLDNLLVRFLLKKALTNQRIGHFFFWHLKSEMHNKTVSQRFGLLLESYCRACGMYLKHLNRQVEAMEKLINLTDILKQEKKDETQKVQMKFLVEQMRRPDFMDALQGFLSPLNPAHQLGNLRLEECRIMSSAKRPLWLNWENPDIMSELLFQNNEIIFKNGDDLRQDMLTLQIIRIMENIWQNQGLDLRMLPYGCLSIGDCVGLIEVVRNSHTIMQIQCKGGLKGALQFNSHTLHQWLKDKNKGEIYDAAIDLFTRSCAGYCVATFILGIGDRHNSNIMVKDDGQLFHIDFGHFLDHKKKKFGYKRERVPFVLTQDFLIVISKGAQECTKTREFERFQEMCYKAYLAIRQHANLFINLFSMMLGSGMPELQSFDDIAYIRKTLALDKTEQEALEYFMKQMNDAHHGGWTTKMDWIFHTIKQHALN
Sequence of p110α/p85 (P27986 whole entry partner): as the sequence (P27986 whole entry partner, species assumed) above
Description: as §1

NZOV9 = test: Cellular growth inhibition, NZOV9 (3H-thymidine incorporation); type: cell-based, human; conditions: five days incubation, 3H-thymidine over the last 6 hrs, read-out: Cell IC50 NZOV9
Description: (§2) The compounds were evaluated against two early passage human cell lines NZB5 and NZOV9 (Marshall et al., Oncol. Res. 2004, 14, 297). The cells were grown in ITS medium (α-modified minimal essential medium supplemented insulin, transferrin, selenite, and 5% fetal bovine serum) and grown on 96-well tissue culture plates under an atmosphere of 5% O2, 5% CO2, and 90% N2. Individual wells contained 500-1,000 cells (depending on the growth rate) in a volume of 150 μL. Compounds were added at 10-fold concentration steps to a maximum of 20 μM and plates were incubated for five days, with ^3H-thymidine being added over the last 6 hrs. Cells were harvested and incorporated radioactivity measured. Duplicate samples were analyzed for each compound dose with multiple control samples.

NZB5 = test: Cellular growth inhibition, NZB5 (3H-thymidine incorporation); type: cell-based, human; conditions: five days incubation, 3H-thymidine over the last 6 hrs, read-out: Cell IC50 NZB5
Description: as §2

p110δ/p85 = p110δ/p85 (Homo sapiens, UniProt O00329); test: Inhibition of isolated enzyme p110δ/p85 (lipid kinase, [γ-33P]ATP, TLC); type: biochemical; conditions: recombinant enzyme, 100 μM ATP, nine concentrations, average of two experiments
Sequence of p110δ/p85 (O00329 whole entry, species assumed): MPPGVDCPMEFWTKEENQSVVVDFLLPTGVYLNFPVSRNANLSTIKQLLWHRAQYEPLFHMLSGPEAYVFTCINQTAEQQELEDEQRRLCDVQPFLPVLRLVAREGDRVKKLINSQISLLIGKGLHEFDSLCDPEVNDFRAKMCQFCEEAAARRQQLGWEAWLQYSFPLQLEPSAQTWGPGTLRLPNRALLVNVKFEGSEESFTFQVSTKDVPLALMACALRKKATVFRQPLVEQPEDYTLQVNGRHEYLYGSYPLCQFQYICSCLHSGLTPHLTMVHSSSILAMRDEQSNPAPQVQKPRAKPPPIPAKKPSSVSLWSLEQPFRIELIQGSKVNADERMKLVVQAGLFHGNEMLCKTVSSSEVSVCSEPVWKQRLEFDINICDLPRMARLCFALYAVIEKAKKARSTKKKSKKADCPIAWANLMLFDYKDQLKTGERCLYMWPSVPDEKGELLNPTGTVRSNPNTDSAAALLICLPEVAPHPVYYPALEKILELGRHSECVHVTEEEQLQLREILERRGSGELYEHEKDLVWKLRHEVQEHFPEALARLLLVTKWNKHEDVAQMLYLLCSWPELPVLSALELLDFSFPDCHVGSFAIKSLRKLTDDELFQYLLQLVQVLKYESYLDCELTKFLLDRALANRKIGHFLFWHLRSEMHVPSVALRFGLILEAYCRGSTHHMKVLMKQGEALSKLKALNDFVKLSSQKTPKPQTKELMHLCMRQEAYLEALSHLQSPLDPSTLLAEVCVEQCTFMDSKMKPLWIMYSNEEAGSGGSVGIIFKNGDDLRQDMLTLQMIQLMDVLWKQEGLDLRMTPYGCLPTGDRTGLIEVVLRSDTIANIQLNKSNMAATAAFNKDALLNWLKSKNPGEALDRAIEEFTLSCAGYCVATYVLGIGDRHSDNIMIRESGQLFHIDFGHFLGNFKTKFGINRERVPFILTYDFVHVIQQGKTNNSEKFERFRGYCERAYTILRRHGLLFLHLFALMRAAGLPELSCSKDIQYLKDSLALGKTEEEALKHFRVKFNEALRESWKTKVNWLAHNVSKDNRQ
Sequence of p110δ/p85 (P27986 whole entry partner, species assumed): as the sequence (P27986 whole entry partner, species assumed) above
Description: as §1

PI3K = conditions: reversible inhibitors, literature; cited from earlier work
human tumor xenografts = conditions: mouse, in vivo; cited from earlier work

Molecule	IC50 (p110β/p85)	IC50 (p110α/p85)	IC50 (p110δ/p85)	melting point	PI3K isoform selectivity (PI3K)	IC50 (NZOV9; Homo sapiens, NZOV9)	IC50 (NZB5; Homo sapiens, NZB5)	further results
N-{(3S)-1-[4-[2-(difluoromethyl)-4-methoxy-1H-benzimidazol-1-yl]-6-(4-morpholinyl)-1,3,5-triazin-2-yl]piperidinyl}-N-[3-(dimethylamino)propyl]methane-sulfonamide [Example 63]	> 1000 nM	100 to 1000 nM	100 to 1000 nM	–	–	–	–	IC50 (NZOV9): 100 to 1000 nM; IC50 (NZB5): 100 to 1000 nM
Oc1cccc(-c2nc(N3CCOCC3)c3oc4ncccc4c3n2)c1 [PI103]	–	–	–	–	slightly α-selective	–	–	–
O=c1cc(N2CCOCC2)oc2c(-c3ccccc3)cccc12 [LY294002]	–	–	–	–	–	–	–	tolerability (human tumor xenografts): well-tolerated
Cc1cc(C(C)Nc2ccccc2)c2nc(N3CCOCC3)cc(=O)n2c1 (stereo not shown) [TGX221]	–	–	–	–	β-selective	–	–	–
FC(F)c1nc2ccccc2n1-c1nc(N2CCOCC2)nc(N2CCOCC2)n1 [ZSTK474]	–	–	–	–	non-selective	–	–	–
Cc1ccccc1-n1c(Cn2cnc3c(N)ncnc32)nc2cccc(C)c2c1=O [IC87114]	–	–	–	–	δ-selective	–	–	–
C=CS(=O)(=O)N1CCN(c2nc(N3CCOCC3)nc(-n3c(C(F)F)nc4c(OC)cccc43)n2)CC1 [Example 3, 2-(difluoromethyl)-4-methoxy-1-{4-(4-morpholinyl)-6-[4-(vinylsulfonyl)-1-piperazinyl]-1,3,5-triazin-2-yl}-1H-benzimidazole]	< 100 nM	< 100 nM	< 100 nM	242 to 244 °C	–	< 100 nM	100 to 1000 nM	–

Further lines, with some results ahead:

IC50 (p110β/p85)	IC50 (p110α/p85)	IC50 (p110δ/p85)	melting point	Molecule	PI3K isoform selectivity (PI3K)	IC50 (NZOV9; Homo sapiens, NZOV9)	IC50 (NZB5; Homo sapiens, NZB5)	further results
< 100 nM	< 100 nM	< 100 nM	191 to 193 °C	COc1cccc2c1nc(C(F)F)n2-c1nc(N2CCOCC2)cc(N(C)C2CCN(S(C)(=O)=O)CC2)n1 [Example 6, 2-[2-(difluoromethyl)-4-methoxy-1H-benzimidazol-1-yl]-N-methyl-N-[1-(methylsulfonyl)-4-piperidinyl]-6-(4-morpholinyl)-4-pyrimidinamine]	–	< 100 nM	100 to 1000 nM	–
> 1000 nM	–	–	–	CN(C)CCCOc1cccc2c1nc(C(F)F)n2-c1nc(OC2CCN(S(C)(=O)=O)CC2)nc(N2CCOCC2)n1 [Example 7, N-[3-({2-(difluoromethyl)-1-[4-{[1-(methylsulfonyl)-4-piperidinyl]oxy}-6-(4-morpholinyl)-1,3,5-triazin-2-yl]-1H-benzimidazol-4-yl}oxy)propyl]-N,N-dimethylamine]	–	100 to 1000 nM	100 to 1000 nM	–
100 to 1000 nM	< 100 nM	< 100 nM	250 to 253 °C	COc1cccc2c1nc(C(F)F)n2-c1nc(Nc2ccc(N(C)S(C)(=O)=O)nc2)nc(N2CCOCC2)n1 [Example 101, N-(5-{[4-[2-(difluoromethyl)-4-methoxy-1H-benzimidazol-1-yl]-6-(4-morpholinyl)-1,3,5-triazin-2-yl]amino}-2-pyridinyl)-N-methylmethanesulfonamide]	–	< 100 nM	< 100 nM	–
